Patent US20100075973A1, “POLO-LIKE KINASE INHIBITORS” (TAKEDA PHARMACEUTICAL COMPANY LIMITED, priority 2008, published 2010)
Where “and” joins values, the source holds several entries; their conditions need not be identical. Equal values may be shown once.

Biological target: T1, human PLK1 (Homo sapiens, UniProt P53350)
T1 construct: made in house; host or cells: Sf21 insect cells, recombinant baculovirus (pFASTBAC1, Bac-to-Bac)
Experiment: In vitro enzymatic assay: phosphorylation of alpha casein by recombinant PLK1 (Example A)
Format: biochemical
Conditions: recombinant FLAG-tagged PLK1, alpha casein substrate, 500 nmol/L ATP, [γ-32P]ATP, room temperature 40 min; read-out: pIC50 PLK1 (converted)
Experimental: Purified PLK1 may be obtained as follows. cDNA encoding human PLK1 SEQ ID No. 1, Accession Number: NM_005030 was isolated by polymerase chain reaction PCR with primers SEQ ID Nos. 2 and 3 and cloned into pcDNA4/His-Max-TOPO Invitrogen, USA according to the manufacturer's manual. PCR was performed using the vector as a template. In the PCR, primers containing sequences encoding a FLAG-tag DYKDDDDK in the amino-terminal region SEQ ID No. 4 and vector sequence SEQ ID No. 5 were used. After XbaI and XhoI digestion of the PCR product, the fragment was subcloned into pFASTBAC1 Invitrogen, USA. Recombinant baculoviruses were prepared according to the procedure of the Bac-to-Bac baculovirus expression system Invitrogen, USA. Sf21 cells were purchased from Invitrogen and grown in Sf-900 II SFM medium containing 10% fetal bovine serum, 50 gentamicin and 0.1% pluronic F-68 Invitrogen, USA at 28° C. For preparation of PLK1 enzyme, Sf21 cells were infected with recombinant baculoviruses and cultured at 28° C. for 72 h. Cells were lysed and FLAG-tagged PLK1 protein SEQ ID No. 6 was purified by affinity chromatography using anti-FLAG M2 affinity gel Sigma, USA.
The inhibition of PLK1 by the compounds was determined with the following assay that measures the phosphorylation of alpha casein by recombinant PLK1. Kinase reactions were performed at room temperature for 40 min in the kinase reaction buffer 25 mmol/L HEPES, pH 7.5, 10 mmol/L magnesium acetate, 1 mmol/L dithiothreitol containing 50 ng PLK1 enzyme, 0.1 μCi [γ-^32P]ATP, 500 nmol/L ATP and 3 μg alpha casein MP Biomedicals Inc., USA in a final volume of 50 μL. The incubation was terminated by the addition of 10% trichloroacetic acid Wako, Japan. Phosphorylated proteins were filtrated in GF/C filter plates Packard, USA with a Cell harvester Packard, USA and washed out free [γ-^32P]-ATP with 250 mmol/L phosphoric acid. Then, the plates were air dried for 60 min at 45° C., followed by the addition of 20 μL of MicroScint-O Packard, USA. The radioactivity was counted by a Top-count scintillation counter Packard, USA. The IC50 values for test compounds were calculated by Prism 3.02 GraphPad Software, USA.
pIC50 values are the negative of the log of the IC50s and may be calculated by non-linear curve fitting of the compound concentrations and fluorescence intensities to the standard pIC50 equation.

T1 sequence (P53350 whole entry): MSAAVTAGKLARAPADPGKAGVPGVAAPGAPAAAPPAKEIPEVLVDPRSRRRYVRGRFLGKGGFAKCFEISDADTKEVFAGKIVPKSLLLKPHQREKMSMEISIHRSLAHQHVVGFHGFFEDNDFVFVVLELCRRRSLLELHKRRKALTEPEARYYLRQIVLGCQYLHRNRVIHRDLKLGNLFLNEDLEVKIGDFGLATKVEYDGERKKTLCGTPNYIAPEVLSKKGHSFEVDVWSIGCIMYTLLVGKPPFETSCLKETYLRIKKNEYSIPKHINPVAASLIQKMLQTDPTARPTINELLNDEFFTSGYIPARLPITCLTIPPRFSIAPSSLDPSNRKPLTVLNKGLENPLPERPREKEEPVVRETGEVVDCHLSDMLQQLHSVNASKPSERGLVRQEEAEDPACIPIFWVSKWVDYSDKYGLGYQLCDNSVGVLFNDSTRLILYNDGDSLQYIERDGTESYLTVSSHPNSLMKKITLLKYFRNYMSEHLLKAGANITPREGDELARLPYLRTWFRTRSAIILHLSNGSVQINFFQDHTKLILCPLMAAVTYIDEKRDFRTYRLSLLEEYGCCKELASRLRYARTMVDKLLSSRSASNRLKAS

| SMILES | IC50 |
| --- | --- |
| CC[C@@H]1c2c(C#N)ncn2-c2cnc(Nc3ccc(C(=O)NC4CCN(C5CCN(CC6CC6)CC5)CC4)cc3OC)nc2N1C(C)C [Example 21, (R)-4-(7-Cyano-6-ethyl-5-isopropyl-5,6-dihydroimidazo[1,5-f]pteridin-3-ylamino)-N-(1′-(cyclopropylmethyl)-1,4′-bipiperidin-4-yl)-3-methoxybenzamide] | 3.16 nM |
| CC[C@@H]1c2c(C#N)ncn2-c2cnc(Nc3cc(F)c(C(=O)NC4CCN(C5CCN(CC6CC6)CC5)CC4)cc3OC)nc2N1C(C)C [Example 22, (R)-4-(7-Cyano-6-ethyl-5-isopropyl-5,6-dihydroimidazo[1,5-f]pteridin-3-ylamino)-N-(1′-(cyclopropylmethyl)-1,4′-bipiperidin-4-yl)-2-fluoro-5-methoxybenzamide] | 3.98 nM |
| CC[C@@H]1c2c(C#N)ncn2-c2cnc(Nc3ccc(C(=O)NC4CCN(C5CCN(CC6CC6)CC5)CC4)cc3OC)nc2N1C1CCCC1 [Example 26, (R)-4-(7-Cyano-5-cyclopentyl-6-ethyl-5,6-dihydroimidazo[1,5-f]pteridin-3-ylamino)-N-(1′-(cyclopropylmethyl)-1,4′-bipiperidin-4-yl)-3-methoxybenzamide] | 1 nM |
| CC[C@@H]1c2c(C#N)ncn2-c2cnc(Nc3cc(F)c(C(=O)NC4CCN(C5CCN(CC(C)C)CC5)CC4)cc3OC)nc2N1C1CCCC1 [Example 29, (R)-4-(7-Cyano-5-cyclopentyl-6-ethyl-5,6-dihydroimidazo[1,5-f]pteridin-3-ylamino)-2-fluoro-N-(1′-isobutyl-1,4′-bipiperidin-4-yl)-5-methoxybenzamide] | 1.26 nM |
| CC[C@@H]1c2c(C#N)ncn2-c2cnc(Nc3ccc(C(=O)NC4CN(C5CCN(CC6CC6)CC5)C4)cc3OC)nc2N1C(C)C [Example 37, (R)-4-(7-Cyano-6-ethyl-5-isopropyl-5,6-dihydroimidazo[1,5-f]pteridin-3-ylamino)-N-(1-(1-(cyclopropylmethyl)piperidin-4-yl)azetidin-3-yl)-3-methoxybenzamide] | 3.16 nM |
| CC[C@@H]1c2c(C#N)ncn2-c2cnc(Nc3cc(F)c(C(=O)NC4CN(C5CCN(CC6CC6)CC5)C4)cc3OC)nc2N1C(C)C [Example 38, (R)-4-(7-Cyano-6-ethyl-5-isopropyl-5,6-dihydroimidazo[1,5-f]pteridin-3-ylamino)-N-(1-(1-(cyclopropylmethyl)piperidin-4-yl)azetidin-3-yl)-2-fluoro-5-methoxybenzamide] | 3.16 nM |

The remaining lines, values ahead:

| IC50 | SMILES |
| --- | --- |
| 2 nM | CC[C@@H]1c2c(C#N)ncn2-c2cnc(Nc3ccc(C(=O)NC4CCN(C5CCN(CC)CC5)CC4)cc3OC)nc2N1C(C)C [Example 19, (R)-4-(7-Cyano-6-ethyl-5-isopropyl-5,6-dihydroimidazo[1,5-f]pteridin-3-ylamino)-N-(1′-ethyl-1,4′-bipiperidin-4-yl)-3-methoxybenzamide] |
| 3.98 nM | CC[C@@H]1c2c(C#N)ncn2-c2cnc(Nc3cc(F)c(C(=O)NC4CCN(C5CCN(CC)CC5)CC4)cc3OC)nc2N1C(C)C [Example 20, (R)-4-(7-Cyano-6-ethyl-5-isopropyl-5,6-dihydroimidazo[1,5-f]pteridin-3-ylamino)-N-(1′-ethyl-1,4′-bipiperidin-4-yl)-2-fluoro-5-methoxybenzamide] |
| 2 nM | CC[C@@H]1c2c(C#N)ncn2-c2cnc(Nc3ccc(C(=O)NC4CCN(C5CCN(CC(C)C)CC5)CC4)cc3OC)nc2N1C1CCCC1 [Example 27, (R)-4-(7-Cyano-5-cyclopentyl-6-ethyl-5,6-dihydroimidazo[1,5-f]pteridin-3-ylamino)-N-(1′-isobutyl-1,4′-bipiperidin-4-yl)-3-methoxybenzamide] |
| 10 nM | CC[C@@H]1c2c(C#N)ncn2-c2cnc(Nc3cc(F)c(C(=O)Nc4cccc(CN5CCN(C)CC5)c4)cc3OC)nc2N1C(C)C [Example 31, (R)-4-(7-Cyano-6-ethyl-5-isopropyl-5,6-dihydroimidazo[1,5-f]pteridin-3-ylamino)-2-fluoro-5-methoxy-N-(3-((4-methylpiperazin-1-yl)methyl)phenyl)benzamide] |

Test system: not given
Experiment: not given
Conditions: not given

| SMILES | melting point |
| --- | --- |
| CC[C@@H]1c2c(C#N)ncn2-c2cnc(Nc3cc(F)c(C(=O)N[C@H]4CC[C@H](N5CCN(CC6CC6)CC5)CC4)cc3OC)nc2N1C(C)C [Example 1] | 251 to 255 °C and 250 to 254 °C |
| CC[C@@H]1c2c(C#N)ncn2-c2cnc(Nc3ccc(C(=O)NC4CCC(N5CCN(C)CC5)CC4)cc3OC)nc2N1C1CCCC1 (some centres unmarked) [Example 2] | 187 to 192 °C |
| CC[C@@H]1c2c(C#N)ncn2-c2cnc(Nc3ccc(C(=O)NC4CCC(N5CCN(C(C)C)CC5)CC4)cc3OC)nc2N1C1CCCC1 (some centres unmarked) [Example 4] | 216 to 220 °C |
| CC[C@@H]1c2c(C#N)ncn2-c2cnc(Nc3ccc(C(=O)N[C@H]4CC[C@H](N5CCN(CC6CC6)CC5)CC4)cc3OC)nc2N1C1CCCC1 [Example 5] | 186 to 190 °C |
| CC[C@@H]1c2c(C#N)ncn2-c2cnc(Nc3cc(F)c(C(=O)NC4CCC(N5CCN(C)CC5)CC4)cc3OC)nc2N1C1CCCC1 (some centres unmarked) [Example 6] | > 205 °C |
| CC[C@@H]1c2c(C#N)ncn2-c2cnc(Nc3cc(F)c(C(=O)NC4CCC(N5CCN(CC(C)C)CC5)CC4)cc3OC)nc2N1C1CCCC1 (some centres unmarked) [Example 8] | 155 to 158 °C |
| CC[C@@H]1c2c(C#N)ncn2-c2cnc(Nc3ccc(C(=O)NC4CCC(N5CCN(CC(C)C)CC5)CC4)cc3OC)nc2N1C(C)C (some centres unmarked) [Example 12] | 165 to 170 °C |
| CC[C@@H]1c2c(C#N)ncn2-c2cnc(Nc3ccc(C(=O)NC4CCN(C5CCN(CC(C)C)CC5)CC4)cc3OC)nc2N1C(C)C [Example 23, (R)-4-(7-Cyano-6-ethyl-5-isopropyl-5,6-dihydroimidazo[1,5-f]pteridin-3-ylamino)-N-(1′-isobutyl-1,4′-bipiperidin-4-yl)-3-methoxybenzamide] | 165 to 170 °C |
| CC[C@@H]1c2c(C#N)ncn2-c2cnc(Nc3ccc(C(=O)N[C@H]4CC[C@H](N5CCN(CC6CC6)CC5)CC4)c(F)c3)nc2N1C(C)C [Example 45] | 219 to 222 °C |

Results, then the compound that gave them:

| melting point | SMILES |
| --- | --- |
| 170 to 173 °C | CC[C@@H]1c2c(C#N)ncn2-c2cnc(Nc3ccc(C(=O)NC4CCC(N5CCN(CC)CC5)CC4)cc3OC)nc2N1C1CCCC1 (some centres unmarked) [Example 3] |
| 195 to 198 °C | CC[C@@H]1c2c(C#N)ncn2-c2cnc(Nc3ccc(C(=O)NC4CCC(N5CCN(C)CC5)CC4)cc3OC)nc2N1C(C)C (some centres unmarked) [Example 9] |
| 198 to 204 °C | CC[C@@H]1c2c(C#N)ncn2-c2cnc(Nc3ccc(C(=O)NC4CCC(N5CCN(CC6CC6)CC5)CC4)cc3OC)nc2N1C(C)C (some centres unmarked) [Example 11] |
| 219 to 222 °C | CC[C@@H]1c2c(C#N)ncn2-c2cnc(Nc3cc(F)c(C(=O)NC4CCC(N5CCN(CC(C)C)CC5)CC4)cc3OC)nc2N1C(C)C (some centres unmarked) [Example 18] |
